Data as given in US11072741B2, “Optically anisotropic layer, method for producing the optically anisotropic layer, a laminate, polarizing plate, display device, liquid crystal compound, method for producing the liquid crystal compound, and carboxylic acid compound” (FUJIFILM Corporation, priority 2014, dated 2021).

Tests used:
[1] = Evaluation of phase transition temperature by polarizing microscope; format: physicochemical; settings: for TNi(° C.) Isotropic Phase Transition Point / Tsm—N(° C.) Sm—N Transition Point: during temperature increase; for Phase Transition Temperature Evaluation of Decrease: versus comparative compound with the same Ar and side chain portion of Formula (Ia)
Text: Here, the temperature at which the compound transitions from the smectic phase to the nematic phase may be easily measured by observation of the composition employing polarized light microscopy. For example, in the nematic phase, a schlieren texture specific to the nematic phase is observed, while the texture transitions to a focal conic fan texture in a smectic A phase. Therefore, the phase transition temperature can be measured by observing the textures with a polarizing microscope while increasing or decreasing the temperature.
The phase transition temperatures of the synthesized liquid crystal compounds of the Examples and Comparative Examples were observed using a polarizing microscope to evaluate the degrees of temperature decrease. Specifically, the compounds of the Examples were compared to the compounds of the Comparative Examples, which have different structures for the side chain portions thereof. That is, the phase transition temperature of a compound of a Comparative Example having Ar (the aromatic ring at the center of General Formula 1) in common with the Examples and a side chain portion represented by Formula (Ia) below was used as a reference. Evaluations of A through C were assigned according to the degree of temperature decrease from the reference phase transition temperature.
(§1) For example, compound (I-1) and (I-2) were compared to Comparative Compound (Ia-1), and Compound (III-3) was compared to Comparative Compound (IIIa-3). The evaluation was carried out based on the following criteria.
A: decrease in melting point or Sm-N (smectic-nematic) transition temperature is 20° C. or greater
B: decrease in melting point or Sm-N (smectic-nematic) transition temperature is 5° C. or greater and less than 20° C.
C: decrease in melting point or Sm-N (smectic-nematic) transition temperature is less than 5° C.
With respect to the phase transition temperature, the numerical value in parentheses represents the numerical value during temperature decrease, and other numerical values represent a numerical value during temperature increase.

[2] = Measurement and evaluation of solubility in MEK and CPN; format: physicochemical; design: key to Solubility Evaluation: A: solubility improved twofold or greater in plural solvents or a single solvent; B: solubility was the same or improved up to twofold in plural solvents or a single solvent; C: no improvement in solubility in plural solvents or a single solvent; settings: for Solubility CPN wt %: cyclopentanone; for Solubility CPN wt % / Solubility MEK wt %: room temperature, visual observation, 5 wt % increments; for Solubility MEK wt %: methyl ethyl ketone; for Solubility Evaluation: versus comparative compound with the same Ar and side chain portion of Formula (Ia)
Procedure: Solubility measurements of the synthesized liquid crystal compounds were conducted by the following method. 50 mg of each compound was weighted into a 1.5 mL sample bottle, and solvent was added until the solid component became 40 wt % (75 mg). The solubility was determined to be 40 wt % if clear under visual observation after shaking well manually at room temperature. If undissolved residue was present, solvent was added such that the solid component became 35 wt % (+18 mg). The solubility was determined to be 35 wt % if clear under visual observation after shaking well manually at room temperature. If undissolved residue was present, solvent was added such that the solid component became 30 wt %. Similar operations were performed in increments of 5 wt %, and repeated until the solid component became 5 wt %. If undissolved residue was present, the solubility was determined to be less than 5 wt % (<5 wt %), and measurements were completed. MEK (methyl ethyl ketone) and CPN (cyclopentanone) were utilized as solvents for measuring solubility.
The measured values of solubility were evaluated. The evaluations were conducted by using solubility of a compound of a Comparative Example having Ar (the aromatic ring at the center of General Formula 1) in common with the Examples and a side chain portion represented by Formula (Ia) as a reference, in a manner similar to that in the evaluation of the phase transition temperature. Evaluations of A through C were assigned according to the degree of improvement in solubility from the reference solubility.
as §1
A: solubility improved twofold or greater in plural solvents or a single solvent
B: solubility was the same or improved up to twofold in plural solvents or a single solvent
C: no improvement in solubility in plural solvents or a single solvent

| TNi(° C.) Isotropic Phase Transition Point [1] | Tsm—N(° C.) Sm—N Transition Point [1] | melting point | Solubility CPN wt % [2] | Solubility MEK wt % [2] | Structure (SMILES) | Phase Transition Temperature Evaluation of Decrease [1] | Solubility Evaluation [2] |
| --- | --- | --- | --- | --- | --- | --- | --- |
| 172 °C | 146 °C | 110 °C | 40 wt % | 15 wt % | C=CC(=O)OCCOCCOC(=O)CCC(=O)OCCc1ccc(OC(=O)[C@H]2CC[C@H](C(=O)Oc3ccc(OC(=O)[C@H]4CC[C@H](C(=O)Oc5ccc(CCOC(=O)CCC(=O)OCCOCCOC(=O)C=C)cc5)CC4)c4c3SC(=C(C#N)C#N)S4)CC2)cc1 [Compound I-5] | A (decrease in melting point or Sm-N (smectic-nematic) transition temperature is 20 °C or greater) | A (solubility improved twofold or greater in plural solvents or a single solvent) |
| 118 °C | – | 100 °C | 20 wt % | 10 wt % | C=CC(=O)OCCOC(=O)CCC(=O)OCCc1ccc(OC(=O)[C@H]2CC[C@H](C(=O)Oc3ccc(OC(=O)[C@H]4CC[C@H](C(=O)Oc5ccc(CCOC(=O)CCC(=O)OCCOC(=O)C=C)cc5)CC4)c4c3SC(=C(C#N)C(=O)OC)S4)CC2)cc1 [III-3] | A (decrease in melting point or Sm-N (smectic-nematic) transition temperature is 20 °C or greater) | A (solubility improved twofold or greater in plural solvents or a single solvent) |
| 210 °C | 122 °C | 116 °C | 15 wt % | 5 wt % | C=CC(=O)OCCOC(=O)Cc1ccc(OC(=O)[C@H]2CC[C@H](C(=O)Oc3ccc(OC(=O)[C@H]4CC[C@H](C(=O)Oc5ccc(CC(=O)OCCOC(=O)C=C)cc5)CC4)c4c3SC(=C(C#N)C#N)S4)CC2)cc1 [II-9] | A (decrease in melting point or Sm-N (smectic-nematic) transition temperature is 20 °C or greater) | B (solubility was the same or improved up to twofold in plural solvents or a single solvent) |
| >250 ^ ° C. | – | 189 °C | 10 wt % | <5 wt % | C=CC(=O)OCCCCCCOc1ccc(OC(=O)[C@H]2CC[C@H](C(=O)Oc3cc(C)c(OC(=O)[C@H]4CC[C@H](C(=O)Oc5ccc(OCCCCCCOC(=O)C=C)cc5)CC4)c4c3SC(=C(C#N)C#N)S4)CC2)cc1 [IVa-1] | – | – |
| 99 °C | – | 95 °C | 40 wt % | 40 wt % | C=CC(=O)OCCOC(=O)CCC(=O)OCCc1ccc(OC(=O)[C@H]2CC[C@H](C(=O)Oc3cc(OCC)c(OC(=O)[C@H]4CC[C@H](C(=O)Oc5ccc(CCOC(=O)CCC(=O)OCCOC(=O)C=C)cc5)CC4)c4c3SC(=C(C#N)C#N)S4)CC2)cc1 [IV-10] | – | – |
| 220 °C | 158 °C | 130 °C | 20 wt % | 5 wt % | C=C(C)C(=O)OCCNC(=O)OCCc1ccc(OC(=O)[C@H]2CC[C@H](C(=O)Oc3ccc(OC(=O)[C@H]4CC[C@H](C(=O)Oc5ccc(CCOC(=O)NCCOC(=O)C(=C)C)cc5)CC4)c4c3SC(=C(C#N)C#N)S4)CC2)cc1 [Compound I-9] | B (decrease in melting point or Sm-N (smectic-nematic) transition temperature is 5 °C or greater and less than 20° C.) | B (solubility was the same or improved up to twofold in plural solvents or a single solvent) |
| 206 °C | – | 170 °C | 10 wt % | <5 wt % | C=CC(=O)OCCCCOC(=O)[C@H]1CC[C@H](C(=O)O[C@H]2CC[C@H](C(=O)Oc3ccc(OC(=O)[C@H]4CC[C@H](OC(=O)[C@H]5CC[C@H](C(=O)OCCCCOC(=O)C=C)CC5)CC4)c4c3SC(=C(C#N)C#N)S4)CC2)CC1 [Ib-1] | C (decrease in melting point or Sm-N (smectic-nematic) transition temperature is less than 5° C.) | C |
| 185 °C | 179 °C | 126 °C | 25 wt % | 10 wt % | C=CCCCCCCCCC(=O)OCCc1ccc(OC(=O)[C@H]2CC[C@H](C(=O)Oc3ccc(OC(=O)[C@H]4CC[C@H](C(=O)Oc5ccc(CCOC(=O)CCCCCCCCC=C)cc5)CC4)c4c3SC(=C(C#N)C#N)S4)CC2)cc1 [Compound I-14] | B (decrease in melting point or Sm-N (smectic-nematic) transition temperature is 5 °C or greater and less than 20° C.) | A (solubility improved twofold or greater in plural solvents or a single solvent) |
| 172 °C | 146 °C | 110 °C | 20 wt % | 10 wt % | C=CC(=O)OCCOC(=O)COCC(=O)OCCc1ccc(OC(=O)[C@H]2CC[C@H](C(=O)Oc3ccc(OC(=O)[C@H]4CC[C@H](C(=O)Oc5ccc(CCOC(=O)COCC(=O)OCCOC(=O)C=C)cc5)CC4)c4c3SC(=C(C#N)C#N)S4)CC2)cc1 [Compound I-6] | A (decrease in melting point or Sm-N (smectic-nematic) transition temperature is 20 °C or greater) | A (solubility improved twofold or greater in plural solvents or a single solvent) |
| 157 °C | – | 106 °C | 40 wt % | 20 wt % | C=CC(=O)OCCCCCCOc1ccc(OC(=O)[C@H]2CC[C@H](C(=O)Oc3ccc(OC(=O)[C@H]4CC[C@H](C(=O)Oc5ccc(OCCCCCCOC(=O)C=C)cc5)CC4)c4c3SC(=C(C#N)C(=O)OCCC(C)(C)O)S4)CC2)cc1 [IIIa-7] | – | – |
| 172 °C | 140 °C | 108 °C | 40 wt % | 20 wt % | C=CC(=O)OCCOC(=O)CCC(=O)OCCc1ccc(OC(=O)[C@H]2CC[C@H](C(=O)Oc3ccc(OC(=O)[C@H]4CC[C@H](C(=O)Oc5ccc(CCOC(=O)CCC(=O)OCCOC(=O)C=C)cc5)CC4)c4c3SC(=C(C#N)C#N)S4)CC2)cc1 [Compound I-1] | A (decrease in melting point or Sm-N (smectic-nematic) transition temperature is 20 °C or greater) | A (solubility improved twofold or greater in plural solvents or a single solvent) |
| 190 °C | – | 127 °C | 25 wt % | 10 wt % | N#CC(C#N)=C1Sc2c(OC(=O)[C@H]3CC[C@H](C(=O)Oc4ccc(CCOC(=O)CCCCCCCCC5CO5)cc4)CC3)ccc(OC(=O)[C@H]3CC[C@H](C(=O)Oc4ccc(CCOC(=O)CCCCCCCCC5CO5)cc4)CC3)c2S1 (stereo partly drawn) [Compound I-15] | A (decrease in melting point or Sm-N (smectic-nematic) transition temperature is 20 °C or greater) | A (solubility improved twofold or greater in plural solvents or a single solvent) |
